Results from US12077503B2, “Substituted cyclic amides and their use as herbicides” (FMC CORPORATION, priority 2015, dated 2024).

Key:
Assay type in all cases: in vivo
[1] = tested on: Kochia (Kochia scoparia); assay: Test A preemergence; conditions: for Plant response rating, Kochia: 125 g ai/ha, preemergence, 0 to 100 scale (0 no effect, 100 complete control); for Kochia plant response rating (0 to 100 scale, 0 is no effect, 100 is complete control): Preemergence, 500 g ai/ha, visual injury approx. 10 d
Method in brief: (§1)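 Preemergence directed soil spray on seeded pots, or postemergence application to plants 2–10 cm, one- to two-leaf. Solvent mixture non-phytotoxic, with surfactant. Scored ~10 d later, visually, 0–100 vs untreated.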

[2] = tested on: barnyardgrass (Echinochloa crus-galli); assay: Test A preemergence; conditions: for Plant response rating, Barnyardgrass: 125 g ai/ha, preemergence, 0 to 100 scale (0 no effect, 100 complete control); for Barnyardgrass plant response rating (0 to 100 scale, 0 is no effect, 100 is complete control): Preemergence, 500 g ai/ha, visual injury approx. 10 d
Method in brief: as §1

[3] = tested on: giant foxtail (Setaria faberii); assay: Test A preemergence; conditions: for Plant response rating, Foxtail, Giant: 125 g ai/ha, preemergence, 0 to 100 scale (0 no effect, 100 complete control); for Foxtail, Giant plant response rating (0 to 100 scale, 0 is no effect, 100 is complete control): Preemergence, 500 g ai/ha, visual injury approx. 10 d
Method in brief: as §1

[4] = tested on: pigweed (Amaranthus retroflexus); assay: Test A preemergence; conditions: for Plant response rating, Pigweed: 125 g ai/ha, preemergence, 0 to 100 scale (0 no effect, 100 complete control); for Pigweed plant response rating (0 to 100 scale, 0 is no effect, 100 is complete control): Preemergence, 500 g ai/ha, visual injury approx. 10 d
[5] = tested on: ragweed (common ragweed, Ambrosia elatior); assay: Test A preemergence; conditions: for Plant response rating, Ragweed: 125 g ai/ha, preemergence, 0 to 100 scale (0 no effect, 100 complete control); for Ragweed plant response rating (0 to 100 scale, 0 is no effect, 100 is complete control): Preemergence, 500 g ai/ha, visual injury approx. 10 d
Method in brief: as §1

[6] = tested on: ryegrass, Italian (Italian ryegrass, Lolium multiflorum); assay: Test A preemergence; conditions: for Plant response rating, Ryegrass, Italian: 125 g ai/ha, preemergence, 0 to 100 scale (0 no effect, 100 complete control); for Ryegrass, Italian plant response rating (0 to 100 scale, 0 is no effect, 100 is complete control): Preemergence, 500 g ai/ha, visual injury approx. 10 d
Method in brief: as §1

[7] = tested on: Galium (catchweed bedstraw, Galium aparine); assay: Test A postemergence; conditions: postemergence; for Galium plant response rating: 125 g ai/ha, visual injury rating on 0 to 100 scale (0 no effect, 100 complete control), approx. 10 d; for Plant response rating, Galium: 500 g ai/ha, 0 to 100 scale, 0 no effect, 100 complete control
Method in brief: as §1

[8] = tested on: Kochia (Kochia scoparia); assay: Test A postemergence; conditions: postemergence; for Kochia plant response rating: 125 g ai/ha, visual injury rating on 0 to 100 scale (0 no effect, 100 complete control), approx. 10 d; for Plant response rating, Kochia: 500 g ai/ha, 0 to 100 scale, 0 no effect, 100 complete control
Method in brief: as §1

[9] = tested on: barnyardgrass (Echinochloa crus-galli); assay: Test A postemergence; conditions: postemergence; for Barnyardgrass plant response rating: 125 g ai/ha, visual injury rating on 0 to 100 scale (0 no effect, 100 complete control), approx. 10 d; for Plant response rating, Barnyardgrass: 500 g ai/ha, 0 to 100 scale, 0 no effect, 100 complete control
Method in brief: as §1

[10] = tested on: blackgrass (Alopecurus myosuroides); assay: Test A postemergence; conditions: postemergence; for Blackgrass plant response rating: 125 g ai/ha, visual injury rating on 0 to 100 scale (0 no effect, 100 complete control), approx. 10 d; for Plant response rating, Blackgrass: 500 g ai/ha, 0 to 100 scale, 0 no effect, 100 complete control
Method in brief: as §1

[11] = tested on: corn (Zea mays); assay: Test A postemergence; conditions: postemergence; for Corn plant response rating: 125 g ai/ha, visual injury rating on 0 to 100 scale (0 no effect, 100 complete control), approx. 10 d; for Plant response rating, Corn: 500 g ai/ha, 0 to 100 scale, 0 no effect, 100 complete control
Method in brief: as §1

[12] = tested on: giant foxtail (Setaria faberii); assay: Test A postemergence; conditions: postemergence; for Foxtail, Giant plant response rating: 125 g ai/ha, visual injury rating on 0 to 100 scale (0 no effect, 100 complete control), approx. 10 d; for Plant response rating, Foxtail, Giant: 500 g ai/ha, 0 to 100 scale, 0 no effect, 100 complete control
Method in brief: as §1

[13] = tested on: pigweed (Amaranthus retroflexus); assay: Test A postemergence; conditions: postemergence; for Pigweed plant response rating: 125 g ai/ha, visual injury rating on 0 to 100 scale (0 no effect, 100 complete control), approx. 10 d; for Plant response rating, Pigweed: 500 g ai/ha, 0 to 100 scale, 0 no effect, 100 complete control
Method in brief: as §1

[14] = tested on: ragweed (common ragweed, Ambrosia elatior); assay: Test A postemergence; conditions: postemergence; for Ragweed plant response rating: 125 g ai/ha, visual injury rating on 0 to 100 scale (0 no effect, 100 complete control), approx. 10 d; for Plant response rating, Ragweed: 500 g ai/ha, 0 to 100 scale, 0 no effect, 100 complete control
Method in brief: as §1

[15] = tested on: ryegrass, Italian (Italian ryegrass, Lolium multiflorum); assay: Test A postemergence; conditions: postemergence; for Ryegrass, Italian plant response rating: 125 g ai/ha, visual injury rating on 0 to 100 scale (0 no effect, 100 complete control), approx. 10 d; for Plant response rating, Ryegrass, Italian: 500 g ai/ha, 0 to 100 scale, 0 no effect, 100 complete control
Method in brief: as §1

[16] = tested on: wheat (Triticum aestivum); assay: Test A postemergence; conditions: postemergence; for Wheat plant response rating: 125 g ai/ha, visual injury rating on 0 to 100 scale (0 no effect, 100 complete control), approx. 10 d; for Plant response rating, Wheat: 500 g ai/ha, 0 to 100 scale, 0 no effect, 100 complete control
Method in brief: as §1

[17] = tested on: barnyardgrass (Echinochloa crus-galli); assay: Test B flooded paddy test; conditions: Flood, 250 g ai/ha; 0 to 100 scale where 0 is no effect and 100 is complete control; 13 to 15 d
Method in brief: (§2)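 Greenhouse paddy pots with 2-leaf stage plants received compound by direct addition to floodwater 3 cm deep, kept at that level. Scored visually at 13–15 d versus controls (0 no effect; 100 complete control).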

[18] = tested on: ducksalad (Heteranthera limosa); assay: Test B flooded paddy test; conditions: Flood, 250 g ai/ha; 0 to 100 scale where 0 is no effect and 100 is complete control; 13 to 15 d
Method in brief: as §2

[19] = tested on: rice (Oryra sativa); assay: Test B flooded paddy test; conditions: Flood, 250 g ai/ha; 0 to 100 scale where 0 is no effect and 100 is complete control; 13 to 15 d
Method in brief: as §2

[20] = tested on: sedge, umbrella (small-flower umbrella sedge, Cyperus difformis); assay: Test B flooded paddy test; conditions: Flood, 250 g ai/ha; 0 to 100 scale where 0 is no effect and 100 is complete control; 13 to 15 d
Method in brief: as §2

| SMILES | Plant response rating, Kochia [1] | Kochia plant response rating (0 to 100 scale, 0 is no effect, 100 is complete control) [1] | Plant response rating, Barnyardgrass [2] | Barnyardgrass plant response rating (0 to 100 scale, 0 is no effect, 100 is complete control) [2] | Plant response rating, Foxtail, Giant [3] | Foxtail, Giant plant response rating (0 to 100 scale, 0 is no effect, 100 is complete control) [3] | Plant response rating, Pigweed [4] | Pigweed plant response rating (0 to 100 scale, 0 is no effect, 100 is complete control) [4] | Plant response rating, Ragweed [5] | Ragweed plant response rating (0 to 100 scale, 0 is no effect, 100 is complete control) [5] | Plant response rating, Ryegrass, Italian [6] | Ryegrass, Italian plant response rating (0 to 100 scale, 0 is no effect, 100 is complete control) [6] | Galium plant response rating [7] | Plant response rating, Galium [7] | Kochia plant response rating [8] | Plant response rating, Kochia [8] | Barnyardgrass plant response rating [9] | Plant response rating, Barnyardgrass [9] | Blackgrass plant response rating [10] | Plant response rating, Blackgrass [10] | further results |
| --- | --- | --- | --- | --- | --- | --- | --- | --- | --- | --- | --- | --- | --- | --- | --- | --- | --- | --- | --- | --- | --- |
| CN1CC(c2ccc3c(c2)OC(F)(F)O3)C(C(=O)Nc2ccccc2F)C1=O (stereo not drawn) [Compound 441] | 70 | 80 | 90 | 90 | 90 | 90 | 50 | 70 | 30 | 80 | 70 | 80 | 50 | 50 | 40 | 70 | 80 | 90 | 50 | 80 | Corn plant response rating [11]: 60; Plant response rating, Corn [11]: 70; Foxtail, Giant plant response rating [12]: 80; Plant response rating, Foxtail, Giant [12]: 80; Pigweed plant response rating [13]: 40; Plant response rating, Pigweed [13]: 60; Ragweed plant response rating [14]: 20; Plant response rating, Ragweed [14]: 50; Ryegrass, Italian plant response rating [15]: 60; Plant response rating, Ryegrass, Italian [15]: 60; Wheat plant response rating [16]: 50; Plant response rating, Wheat [16]: 80; Plant response rating, Barnyardgrass [17]: 70; Plant response rating, Ducksalad [18]: 90; Plant response rating, Rice [19]: 0; Plant response rating, Sedge, Umbrella [20]: 0 |
| O=C1NCC(c2ccc(Br)cc2)C1C(=O)Nc1ccc(F)cc1F (stereo not drawn) [Compound 447] | 50 | 50 | 70 | 90 | 90 | 90 | 30 | 30 | 0 | 0 | 20 | 30 | 40 | 50 | 0 | 40 | 80 | 80 | 0 | 30 | Corn plant response rating [11]: 0; Plant response rating, Corn [11]: 0; Foxtail, Giant plant response rating [12]: 80; Plant response rating, Foxtail, Giant [12]: 80; Pigweed plant response rating [13]: 0; Plant response rating, Pigweed [13]: 30; Ragweed plant response rating [14]: 0; Plant response rating, Ragweed [14]: 0; Ryegrass, Italian plant response rating [15]: 0; Plant response rating, Ryegrass, Italian [15]: 20; Wheat plant response rating [16]: 0; Plant response rating, Wheat [16]: 0; Plant response rating, Barnyardgrass [17]: 40; Plant response rating, Ducksalad [18]: 98; Plant response rating, Rice [19]: 0; Plant response rating, Sedge, Umbrella [20]: 0 |
